The results in this text go back to patent US20160151275A1, “METHOD AND DEVICES FOR MANUFACTURING AND DELIVERING OF AEROSOLIZED FORMULATIONS” (priority 2014, published 2016).

The bioavailability is the share of a dose that reaches the circulation, judged against a reference dose that is usually intravenous.

Read-outs that look alike come from different tables or passages of the source.

For this series the following is noted: human.

In the case of `Cn1c(=O)c2c(ncn2C)n(C)c1=O` [caffeine], the bioavailability was ~10%. This compound showed a bioavailability (inhaled or intranasal) of 80 to 90%.
